{"source": "patent US7858637B2", "about": "“Administration of TLR7 ligands and prodrugs thereof for treatment of infection by hepatitis C virus” (priority 2003, dated 2010)", "key": {"[1]": {"system": "HCV replicon", "assay": "HCV replicon-based viral bioassay with supernatants of compound-treated PBMC", "format": "cell-based, hepatitis C virus", "experimental": "A quantitative assay was developed which is based on measuring the activity of the luciferase reporter gene that was integrated into an HCV replicon. By using this system, interferons from TLR7 agonist-treated PBMCs were measured and their inhibitory activity was assessed using the luciferase reporter replicon.\nHuman PBMCs isolated from a healthy donor were placed in replicate cell culture wells (5×10^6 cells per well). The PBMCs are incubated in the absence of test compounds at 37° C. in a humidified atmosphere containing 5% CO2 for 24 hours to allow stabilization to the culture conditions, and then the TLR7 ligand or a drug free control is added to replicate wells containing PBMCs from the same donor. The concentrations of TLR7 ligand may be varied to suit the particular experiment, and the PBMC cultures are then incubated at 37° C. in a humidified atmosphere containing 5% CO2 for eight hours. Samples of cell culture supernatant are taken at the eight hour time point (or twenty four hour time point in case of Loxoribine and its prodrugs) from TLR7 ligand treated and control wells and are assayed for interferon-alpha production by ELISA. Supernatants from compound-treated cells and a no-drug control were diluted at 1:10, 1:100, and 1:1000 in RPMI media and applied to a 96-well plate of Huh7 hepatocyte cells containing the luciferase reporter replicon. Cells were incubated for 48 hours at 37° C. in a tissue culture incubator.\nAfter the incubation period, the 96-well plates are washed 2× with PBS and are lysed with passive lysis buffer (Promega). Plates are shaken at room temperature for 20 minutes and standard luciferase assay reagent (Promega) is added to each well by injection and the plate is read on an Lmax luminometer (Molecular Devices).\nA supernatant collected from PBMC cells non-exposed to the compound and diluted as specified in the first column was used as a control (“Blank supernatant”). The PBMC cells were isolated from a single blood donor as specified."}, "[2]": {"system": "human peripheral blood mononuclear cells (PBMC)", "assay": "PBMC assay of interferon alpha release (masking)", "format": "cell-based", "conditions": "Homo sapiens, PBMC; Table 9; 100 μM; 24 hours exposure; same blood donor; read-out: Amount of INFa relative to that induced by isatoribine at 100 μM", "experimental": "A typical experiment would use human peripheral blood mononuclear cells (PBMC) isolated from a healthy donor and placed in replicate cell culture wells; typically, 2×10^6 to 5×10^6 cells are placed in each well. The PBMC are incubated in the absence of test compounds at 37° C. in a humidified atmosphere containing 5% CO2 for 24 hours to allow stabilization to the culture conditions, and then 100 micromolar isatoribine, the TLR7 ligand and a corresponding TLR7 ligand prodrug are added to separate wells containing PBMC from the same donor; untreated controls are included. The concentrations of TLR7 ligand and TLR7 ligand prodrug may be varied to suit the particular experiment, and the PBMC cultures are then incubated at 37° C. in a humidified atmosphere containing 5% CO2 for a period of time ranging from two hours to 48 hours. Samples of cell culture supernate media are taken during the incubation. These are assayed for cytokine production by ELISA. Additionally the amount of TLR7 ligand and TLR7 ligand prodrug remaining at the end of the incubation may be assayed by LC-MS. Cytokine production is calculated relative to production in the isatoribine control, following subtraction of the cytokine production in untreated controls.\nThus, if the TLR7 ligand generates more interferon alpha (a conveniently measured cytokine) than does the corresponding TLR7 ligand prodrug after a similar duration of exposure and concentration, the TLR7 ligand prodrug may be deemed a “masked” TLR7 ligand prodrug."}, "[3]": {"system": "interferon alpha", "assay": "Interferon alpha plasma concentrations in mice", "format": "in vivo, mouse", "conditions": "mice", "description": "Not only can one measure the plasma concentrations of isatoribine arising from oral administration of the said prodrug(s) but also the extensive immunological research conducted in the mouse has provided reagents suitable for measuring the levels of interferon alpha, a cytokine of interest reflecting one of the desired biologic activities of isatoribine."}, "[4]": {"conditions": "one vehicle dose, one oral 50 mg/kg dose 4 hours later, time 4.03 h (second dose)"}, "[5]": {"conditions": "one vehicle dose, one oral 50 mg/kg dose 4 hours later, time 4.08 h (second dose)"}, "[6]": {"conditions": "one vehicle dose, one oral 50 mg/kg dose 4 hours later, time 4.25 h (second dose)"}, "[7]": {"conditions": "one vehicle dose, one oral 50 mg/kg dose 4 hours later, time 8.00 h (second dose)"}, "[8]": {"conditions": "two oral 50 mg/kg doses 4 hours apart, time 0.08 h (first dose)"}, "[9]": {"conditions": "two oral 50 mg/kg doses 4 hours apart, time 0.50 h (first dose)"}}, "note": "“And” between values parts separate entries of the source, which are not always exact repeats. Equal entries are not always repeated. “Also recorded” adds a separate entry of the source.", "data": [{"compound": "Nc1nc2c(sc(=O)n2[C@@H]2O[C@H](CO)[C@@H](O)[C@H]2O)c(=O)[nH]1", "note": "[Compound 21, 7-thia-8-oxoguanosine]", "values": [{"measurement": "HCV replicon inhibition", "setting": "[1]; Table 3 No. 1, PBMC exposed 8 hours to 100 μM, donor FL72035, supernatant dilution 1:100", "result": 100, "unit": "%"}, {"measurement": "HCV replicon inhibition", "setting": "[1]; Table 3 No. 1, PBMC exposed 8 hours to 100 μM, donor FL72035, supernatant dilution 1:1000", "result": 94, "unit": "%"}, {"measurement": "HCV replicon inhibition", "setting": "[1]; Table 3 No. 2, PBMC exposed 8 hours to 100 μM, donor FL75287, supernatant dilution 1:10", "result": 100, "unit": "%"}, {"measurement": "HCV replicon inhibition", "setting": "[1]; Table 3 No. 2, PBMC exposed 8 hours to 100 μM, donor FL75287, supernatant dilution 1:100", "result": 87, "unit": "%"}, {"measurement": "HCV replicon inhibition", "setting": "[1]; Table 3 No. 2, PBMC exposed 8 hours to 100 μM, donor FL75287, supernatant dilution 1:1000", "result": 6, "unit": "%"}, {"measurement": "HCV replicon inhibition", "setting": "[1]; Table 3 No. 3, PBMC exposed 24 hours to 100 μM, donor FL75864, supernatant dilution 1:10", "result": 100, "unit": "%"}, {"measurement": "HCV replicon inhibition", "setting": "[1]; Table 3 No. 3, PBMC exposed 24 hours to 100 μM, donor FL75864, supernatant dilution 1:100", "result": 99, "unit": "%"}, {"measurement": "HCV replicon inhibition", "setting": "[1]; Table 3 No. 3, PBMC exposed 24 hours to 100 μM, donor FL75864, supernatant dilution 1:1000", "result": 64, "unit": "%"}, {"measurement": "Emax at 100 µM", "setting": "[2]", "result": 100, "unit": "%"}, {"measurement": "Mu-IFN-α plasma concentration, individual value", "setting": "[3]; [4]", "result": "BQL^25 pg/mL"}, {"measurement": "Mu-IFN-α plasma concentration, mean", "setting": "[3]; [4]", "result": 0.00, "unit": "pg/mL"}, {"measurement": "Mu-IFN-α plasma concentration, individual value", "setting": "[3]; [5]", "result": "BQL^25 pg/mL"}, {"measurement": "Mu-IFN-α plasma concentration, mean", "setting": "[3]; [5]", "result": 0.00, "unit": "pg/mL"}, {"measurement": "Mu-IFN-α plasma concentration, individual value", "setting": "[3]; [6]", "result": "BQL^25 pg/mL"}, {"measurement": "Mu-IFN-α plasma concentration, mean", "setting": "[3]; [6]", "result": 0.00, "unit": "pg/mL"}, {"measurement": "Mu-IFN-α plasma concentration, mean", "setting": "[3]; one vehicle dose, one oral 50 mg/kg dose 4 hours later, time 4.50 h (second dose)", "result": 44.4, "unit": "pg/mL"}, {"measurement": "Mu-IFN-α plasma concentration, individual value", "setting": "[3]; one vehicle dose, one oral 50 mg/kg dose 4 hours later, time 4.50 h (second dose), listed as Isatoribine, 50 mg/kg", "result": "BQL^100 pg/mL and BQL^25 pg/mL and 133.2 pg/mL"}, {"measurement": "Mu-IFN-α plasma concentration, mean", "setting": "[3]; one vehicle dose, one oral 50 mg/kg dose 4 hours later, time 5.00 h (second dose)", "result": 37.5, "unit": "pg/mL"}, {"measurement": "Mu-IFN-α plasma concentration, individual value", "setting": "[3]; one vehicle dose, one oral 50 mg/kg dose 4 hours later, time 5.00 h (second dose), listed as Isatoribine, 50 mg/kg", "result": "74.9 pg/mL and BQL^50 pg/mL"}, {"measurement": "Mu-IFN-α plasma concentration, mean", "setting": "[3]; one vehicle dose, one oral 50 mg/kg dose 4 hours later, time 5.50 h (second dose)", "result": 0.00, "unit": "pg/mL"}, {"measurement": "Mu-IFN-α plasma concentration, individual value", "setting": "[3]; one vehicle dose, one oral 50 mg/kg dose 4 hours later, time 5.50 h (second dose), listed as Isatoribine, 50 mg/kg", "result": "BQL^250 pg/mL; also recorded: BQL^75 pg/mL; also recorded: BQL^25 pg/mL"}, {"measurement": "Mu-IFN-α plasma concentration, mean", "setting": "[3]; one vehicle dose, one oral 50 mg/kg dose 4 hours later, time 6.00 h (second dose)", "result": 0.00, "unit": "pg/mL"}, {"measurement": "Mu-IFN-α plasma concentration, individual value", "setting": "[3]; one vehicle dose, one oral 50 mg/kg dose 4 hours later, time 6.00 h (second dose), listed as Isatoribine, 50 mg/kg", "result": "BQL^25 pg/mL; also recorded: BQL^75 pg/mL"}, {"measurement": "Mu-IFN-α plasma concentration, mean", "setting": "[3]; one vehicle dose, one oral 50 mg/kg dose 4 hours later, time 7.00 h (second dose)", "result": 0.00, "unit": "pg/mL"}, {"measurement": "Mu-IFN-α plasma concentration, individual value", "setting": "[3]; one vehicle dose, one oral 50 mg/kg dose 4 hours later, time 7.00 h (second dose), listed as Isatoribine, 50 mg/kg", "result": "BQL^50 pg/mL; also recorded: BQL^25 pg/mL"}, {"measurement": "Mu-IFN-α plasma concentration, individual value", "setting": "[3]; [7]", "result": "BQL^25 pg/mL"}, {"measurement": "Mu-IFN-α plasma concentration, mean", "setting": "[3]; [7]", "result": 0.00, "unit": "pg/mL"}, {"measurement": "Mu-IFN-α plasma concentration, mean", "setting": "[3]; two oral 50 mg/kg doses 4 hours apart, time 0.00 h (first dose)", "result": 0.00, "unit": "pg/mL"}, {"measurement": "Mu-IFN-α plasma concentration, individual value", "setting": "[3]; two oral 50 mg/kg doses 4 hours apart, time 0.00 h (first dose), listed as Isatoribine, 50 mg/kg", "result": "BQL^50 pg/mL; also recorded: BQL^125 pg/mL"}, {"measurement": "Mu-IFN-α plasma concentration, mean", "setting": "[3]; two oral 50 mg/kg doses 4 hours apart, time 0.03 h (first dose)", "result": 0.00, "unit": "pg/mL"}, {"measurement": "Mu-IFN-α plasma concentration, individual value", "setting": "[3]; two oral 50 mg/kg doses 4 hours apart, time 0.03 h (first dose), listed as Isatoribine, 50 mg/kg", "result": "BQL^25 pg/mL; also recorded: BQL^250 pg/mL"}, {"measurement": "Mu-IFN-α plasma concentration, individual value", "setting": "[3]; [8]", "result": "BQL^25 pg/mL"}, {"measurement": "Mu-IFN-α plasma concentration, mean", "setting": "[3]; [8]", "result": 0.00, "unit": "pg/mL"}, {"measurement": "Mu-IFN-α plasma concentration, mean", "setting": "[3]; two oral 50 mg/kg doses 4 hours apart, time 0.25 h (first dose)", "result": 0.00, "unit": "pg/mL"}, {"measurement": "Mu-IFN-α plasma concentration, individual value", "setting": "[3]; two oral 50 mg/kg doses 4 hours apart, time 0.25 h (first dose), listed as Isatoribine, 50 mg/kg", "result": "BQL^50 pg/mL; also recorded: BQL^25 pg/mL"}, {"measurement": "Mu-IFN-α plasma concentration, individual value", "setting": "[3]; [9]", "result": "BQL^25 pg/mL"}, {"measurement": "Mu-IFN-α plasma concentration, mean", "setting": "[3]; [9]", "result": 0.00, "unit": "pg/mL"}]}]}
